Laboratory results: PMC8190080, “Tanshinones induce tumor cell apoptosis via directly targeting FHIT” (Scientific Reports, 2021)

Assays:
[1] = target: T1, FHIT (Homo sapiens, UniProt P49789); experiment: Cellular MST assay, HEK293T cell lysate containing GFP tagged FHIT; format: binding; conditions: GFP-FHIT in HEK293T cell lysate, 25 °C
T1 construct: GST (N, cleaved yes); made in house; host or cells: E. coli BL21 (DE3)
Experimental: (§1) Ten million 293 cells overexpressing GFP-tagged FHIT or free GFP were lysed in 0.5 mL M-PER mammalian protein extraction reagent (Thermo Fisher Scientific). Cell lysates were diluted in PBS buffer to a final concentration at which the fluorescent signals of the GFP proteins were suitable for the detection of the Monolith NT.115 instrument (NanoTemper Technologies). A single point screening assay was developed against GFP-FHIT protein to find potential binding molecules from compound libraries (L1021,APExBIO). For binding affinity detection, a 10µL protein sample was mixed with 10µL ligand at various concentrations as indicated. And the purified proteins were labeled by Red- NHS kit in accordance with the manufacturer’s protocol (MO-L011, NanoTemper Technologies). Then the mixture solutions were loaded into NT.115 standard coated capillaries or premium coated capillaries (NanoTemper Technologies), and the MST measurements were performed at 25 °C. The fluorescence signal during the thermophoresis was monitored and the change in fluorescence was analyzed by software. The Kd was calculated by fitting a standard binding curve to the series diluted ligands. And data were analyzed by GraphPad Prism 7.0.

[2] = target: T1, FHIT; experiment: MST assay, purified Red-NHS labeled FHIT; format: binding
Experimental: The gene encoding human FHIT (P49789) was synthesized (Genscript, China) and cloned into pGEX-6P-1 such that the expressed protein would have an N-terminal glutathione S-transferase (GST)-tagged protein. The construct was transformed into expression host E.coli BL21 (DE3), and cells were grown in LB medium at 37 °C until the OD600 reached 0.6. The cells were then induced by adding 0.1 mM isopropyl-β-D-l-thiogalactopyranoside (IPTG) and grown at 18 °C overnight. Cells were harvested by centrifugation. The cell pellet was resuspended in a buffer containing 20 mM Tris (pH 7.5), 500 mM NaCl, and 2 mM DTT and lysed by sonication. After centrifugation, the clarified cell lysate was incubated with glutathione-sepharose 4B beads, and GST-tagged FHIT was eluted with the buffer consisting of 50 mM reduced glutathione. […]
Ten million 293 cells overexpressing GFP-tagged FHIT or free GFP were lysed in 0.5 mL M-PER mammalian protein extraction reagent (Thermo Fisher Scientific). […] The fluorescence signal during the thermophoresis was monitored and the change in fluorescence was analyzed by software. The Kd was calculated by fitting a standard binding curve to the series diluted ligands. And data were analyzed by GraphPad Prism 7.0.

[3] = target: FHIT truncation TR2 (Homo sapiens, UniProt P49789); experiment: Cellular MST assay, GFP tagged FHIT truncation TR2; format: binding
Sequence of FHIT truncation TR2 (P49789 whole entry, the tested form may be a part): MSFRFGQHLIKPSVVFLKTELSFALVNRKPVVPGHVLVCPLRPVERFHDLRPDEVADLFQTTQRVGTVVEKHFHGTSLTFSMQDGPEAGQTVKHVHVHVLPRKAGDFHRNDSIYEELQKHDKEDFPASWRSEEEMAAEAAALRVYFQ
Experimental: as §1

[4] = target: T2, FHIT truncation TR3 (Homo sapiens, UniProt P49789); experiment: Cellular MST assay, GFP tagged FHIT truncation TR3 (C-terminal only); format: binding
T2 construct: expressed in transfected cells; host or cells: HEK293T / 293 cells (inferred from the cellular MST method)
T2 sequence (P49789 109-147 limits assumed): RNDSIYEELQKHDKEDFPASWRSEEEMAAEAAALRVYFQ
Experimental: as §1

[5] = target: T3, FHIT (H96N) (Homo sapiens, UniProt P49789, H96N); experiment: Fluorescence polarization assay, FHIT H96N-ApppBODIPY binding inhibition; conditions: 5 µM FHIT (H96N), 1 µM ApppBODIPY
T3 construct: GST (N, cleaved yes); made in house; host or cells: E. coli BL21 (DE3)
T3 sequence (P49789 whole entry H96N): as the sequence (P49789 whole entry, the tested form may be a part) above, with H96N counted along it
Experimental: The binding of FHIT (H96N) to fluorescein-labeled substrates ApppBODIPY was analyzed by fluorescence polarization assay in 384-well format for dose–response curve studies using spark instrument (TECAN) according to the protocol reported before. And 5 µM FHIT (H96N) protein was incubated with 1 µM fluorescein-labeled substrates in buffer A (25 mM Tris–HCl, pH 7.5, 5 mM MgCl2 and 2 mM DTT) with series diluted inhibitors as indicated. Each sample was allowed to equilibrate in the solution for 30 min. After 30 min, the steady-state fluorescence anisotropy (mP) was measured. A second reading was taken after 10 min, to ensure that the mixture was well-equilibrated and stable. Less than 5% change was observed between 30 and 40 min measurements. The IC50 value was determined by fitting the binding curves using GraphPad Prism 7.0.

[6] = target: T4, ENPP1 (Homo sapiens, UniProt P22413); experiment: ENPP1 hydrolase activity detection assay (Ap3A, ADP-Glo); format: biochemical; conditions: ENPP1 4 ng/µl, 4 µM Ap3A
T4 sequence (P22413 1-925): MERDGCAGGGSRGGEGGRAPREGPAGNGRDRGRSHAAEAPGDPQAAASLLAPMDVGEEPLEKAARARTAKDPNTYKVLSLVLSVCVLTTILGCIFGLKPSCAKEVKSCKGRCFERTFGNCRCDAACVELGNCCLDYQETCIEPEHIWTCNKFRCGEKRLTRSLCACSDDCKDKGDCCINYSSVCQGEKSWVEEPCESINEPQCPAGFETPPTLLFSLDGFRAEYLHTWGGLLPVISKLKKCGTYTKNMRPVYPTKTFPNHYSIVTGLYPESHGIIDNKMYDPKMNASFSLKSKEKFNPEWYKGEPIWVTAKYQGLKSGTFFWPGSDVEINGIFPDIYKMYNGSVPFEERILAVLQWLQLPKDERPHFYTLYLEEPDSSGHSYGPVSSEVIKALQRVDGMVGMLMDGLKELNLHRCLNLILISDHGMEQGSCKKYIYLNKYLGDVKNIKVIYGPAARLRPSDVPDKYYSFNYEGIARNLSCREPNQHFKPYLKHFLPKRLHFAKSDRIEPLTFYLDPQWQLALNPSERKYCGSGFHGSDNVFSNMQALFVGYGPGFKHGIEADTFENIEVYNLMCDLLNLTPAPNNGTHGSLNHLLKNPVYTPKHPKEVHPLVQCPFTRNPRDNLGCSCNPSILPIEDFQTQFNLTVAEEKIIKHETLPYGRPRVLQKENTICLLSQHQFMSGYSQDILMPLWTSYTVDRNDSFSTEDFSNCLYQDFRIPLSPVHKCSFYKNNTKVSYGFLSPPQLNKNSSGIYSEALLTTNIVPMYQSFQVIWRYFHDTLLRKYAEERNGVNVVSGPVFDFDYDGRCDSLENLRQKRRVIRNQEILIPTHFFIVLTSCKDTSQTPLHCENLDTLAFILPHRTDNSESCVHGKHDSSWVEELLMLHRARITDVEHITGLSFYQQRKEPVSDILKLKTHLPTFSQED
Experimental: ENPP1 protein (4ng/µl) was mixed with series diluted compounds as indicated in assay buffer (50mM Tris-HCl, 2mM CaCl2, 2mM MgCl2, pH9.0) in a final DMSO concentration of 1% in a total volume of 20μL. The mixtures were incubated for 30min at 25°C, then 4µM Ap3A was added. After incubation at 25°C for 10min, ENPP1 should be inactivated at 85°C for 5min.
Then the production of ADP in the reaction system was detected by ADP-Glo reagent (V6930, Promega) according to the manufacturer’s protocol in 384-well. Luminescence was read by spark (TECAN), an integration time of 1 second per well. And the data were analyzed by

T1 sequence (P49789 whole entry): as the sequence (P49789 whole entry, the tested form may be a part) above

Kd [1]: 268 ± 42.6 nM
Kd ([2]; FHIT purified from E.coli, Red-NHS labeled, MST): 1820 ± 300 nM
binding affinity of purified FHIT, times lower than cellular FHIT ([2]; purified FHIT vs cellular GFP-FHIT): 5
Kd [3]: 58200 nM
Kd [4]: No Kd value was calculated
IC50 [5]: 2200 ± 50 nM
IC50 [6]: 57900 ± 15100 nM
SMILES: Cc1c(S(=O)(=O)O)oc2c1C(=O)C(=O)c1c-2ccc2c1CCCC2(C)C [STS, Sodium tanshinone IIA sulfonate]
